pIC50: −log10 of the molar value.
Tests used:
PDGFR-β = target: T1, PDGFR-β (Homo sapiens, UniProt P09619); assay: PDGFRβ (Cellular Assay), Ba/F3-Tel-PDGFRβ proliferation; format: cell-based; conditions: read-out: IC50 for PDGFR-β
T1 construct: fused on or other part: P41212 (Transcription factor ETV6)

SAPK4(h) = target: T2, SAPK4(h) (Homo sapiens, UniProt O15264); assay: Upstate KinaseProfiler radio-enzymatic filter binding assay; format: biochemical; conditions: read-out: percentage inhibition SAPK4(h)
T2 construct: purchased Upstate
Experimental: (§1) Compounds of the invention are assessed for their ability to inhibit individual members of the kinase panel. The compounds are tested in duplicates at a final concentration of 10 μM following this generic protocol. Note that the kinase buffer composition and the substrates vary for the different kinases included in the “Upstate KinaseProfiler™” panel. Kinase buffer (2.5 μL, 10×—containing MnCl2 when required), active kinase (0.001-0.01 Units; 2.5 μL), specific or Poly(Glu4-Tyr) peptide (5-500 μM or 0.01 mg/ml) in kinase buffer and kinase buffer (50 μM; 5 μL) are mixed in an eppendorf on ice. A Mg/ATP mix (10 μL; 67.5 (or 33.75) mM MgCl2, 450 (or 225) μM ATP and 1 μCi/μl [γ-^32P]-ATP (3000 Ci/mmol)) is added and the reaction is incubated at about 30° C. for about 10 minutes. The reaction mixture is spotted (20 μL) onto a 2 cm×2 cm P81 (phosphocellulose, for positively charged peptide substrates) or Whatman No. 1 (for Poly (Glu4-Tyr) peptide substrate) paper square. The assay squares are washed 4 times, for 5 minutes each, with 0.75% phosphoric acid and washed once with acetone for 5 minutes. The assay squares are transferred to a scintillation vial, 5 ml scintillation cocktail are added and ^32P incorporation (cpm) to the peptide substrate is quantified with a Beckman scintillation counter. Percentage inhibition is calculated for each reaction.

cSRC(h) = target: T3, cSRC(h) (Homo sapiens, UniProt P12931); assay: as above; format: biochemical; conditions: read-out: percentage inhibition cSRC(h)
T3 construct: purchased Upstate
T3 sequence (P12931 whole entry): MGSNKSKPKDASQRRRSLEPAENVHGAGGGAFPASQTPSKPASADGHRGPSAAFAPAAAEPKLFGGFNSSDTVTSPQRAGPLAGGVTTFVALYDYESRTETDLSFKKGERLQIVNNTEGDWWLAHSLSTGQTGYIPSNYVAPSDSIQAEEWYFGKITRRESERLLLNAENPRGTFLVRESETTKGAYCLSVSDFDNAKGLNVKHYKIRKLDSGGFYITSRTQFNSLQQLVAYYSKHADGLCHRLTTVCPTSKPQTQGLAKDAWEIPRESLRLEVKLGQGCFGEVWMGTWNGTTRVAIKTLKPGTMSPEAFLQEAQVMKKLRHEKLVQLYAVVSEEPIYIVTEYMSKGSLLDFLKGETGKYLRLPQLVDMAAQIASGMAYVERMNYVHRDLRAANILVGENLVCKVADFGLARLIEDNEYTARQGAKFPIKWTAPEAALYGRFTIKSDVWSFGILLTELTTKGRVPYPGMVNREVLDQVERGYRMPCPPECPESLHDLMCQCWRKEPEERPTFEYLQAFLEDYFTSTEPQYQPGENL
Experimental: as §1

FGFR3(h) = target: T4, FGFR3(h) (Homo sapiens, UniProt P22607); assay: as above; format: biochemical; conditions: read-out: percentage inhibition FGFR3(h)
T4 construct: purchased Upstate
T4 sequence (P22607 23-806): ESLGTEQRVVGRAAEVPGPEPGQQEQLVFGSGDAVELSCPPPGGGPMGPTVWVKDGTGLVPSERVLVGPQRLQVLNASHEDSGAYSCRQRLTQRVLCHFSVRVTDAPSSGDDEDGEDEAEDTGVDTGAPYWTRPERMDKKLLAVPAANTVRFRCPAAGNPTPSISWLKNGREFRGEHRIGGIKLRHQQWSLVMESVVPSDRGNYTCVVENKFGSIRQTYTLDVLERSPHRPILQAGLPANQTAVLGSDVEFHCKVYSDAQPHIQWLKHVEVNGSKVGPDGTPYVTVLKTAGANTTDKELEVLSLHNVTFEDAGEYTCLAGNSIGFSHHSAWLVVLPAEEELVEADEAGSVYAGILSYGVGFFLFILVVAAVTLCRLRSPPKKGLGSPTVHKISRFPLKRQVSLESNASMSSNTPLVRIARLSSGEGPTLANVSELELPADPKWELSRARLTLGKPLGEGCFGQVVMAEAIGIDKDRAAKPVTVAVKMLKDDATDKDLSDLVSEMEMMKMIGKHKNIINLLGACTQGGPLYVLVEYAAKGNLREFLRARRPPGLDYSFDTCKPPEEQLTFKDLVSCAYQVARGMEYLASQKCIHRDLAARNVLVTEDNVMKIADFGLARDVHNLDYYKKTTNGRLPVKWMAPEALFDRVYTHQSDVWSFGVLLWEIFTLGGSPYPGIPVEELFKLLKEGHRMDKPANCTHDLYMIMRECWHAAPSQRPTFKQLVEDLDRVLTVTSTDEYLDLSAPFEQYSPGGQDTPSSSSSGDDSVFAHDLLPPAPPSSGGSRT
Experimental: as §1

Flt3(h) = target: T5, Flt3(h) (Homo sapiens, UniProt P36888); assay: as above; format: biochemical; conditions: read-out: percentage inhibition Flt3(h)
T5 construct: purchased Upstate
Experimental: as §1

IKKβ(h) = target: T6, IKKβ(h) (Homo sapiens, UniProt O14920); assay: as above; format: biochemical; conditions: read-out: percentage inhibition IKKβ(h)
T6 construct: purchased Upstate
Experimental: as §1

Ros(h) = target: T7, Ros(h) (Homo sapiens, UniProt P08922); assay: as above; format: biochemical; conditions: read-out: percentage inhibition Ros(h)
T7 construct: purchased Upstate
T7 sequence (P08922 28-2347): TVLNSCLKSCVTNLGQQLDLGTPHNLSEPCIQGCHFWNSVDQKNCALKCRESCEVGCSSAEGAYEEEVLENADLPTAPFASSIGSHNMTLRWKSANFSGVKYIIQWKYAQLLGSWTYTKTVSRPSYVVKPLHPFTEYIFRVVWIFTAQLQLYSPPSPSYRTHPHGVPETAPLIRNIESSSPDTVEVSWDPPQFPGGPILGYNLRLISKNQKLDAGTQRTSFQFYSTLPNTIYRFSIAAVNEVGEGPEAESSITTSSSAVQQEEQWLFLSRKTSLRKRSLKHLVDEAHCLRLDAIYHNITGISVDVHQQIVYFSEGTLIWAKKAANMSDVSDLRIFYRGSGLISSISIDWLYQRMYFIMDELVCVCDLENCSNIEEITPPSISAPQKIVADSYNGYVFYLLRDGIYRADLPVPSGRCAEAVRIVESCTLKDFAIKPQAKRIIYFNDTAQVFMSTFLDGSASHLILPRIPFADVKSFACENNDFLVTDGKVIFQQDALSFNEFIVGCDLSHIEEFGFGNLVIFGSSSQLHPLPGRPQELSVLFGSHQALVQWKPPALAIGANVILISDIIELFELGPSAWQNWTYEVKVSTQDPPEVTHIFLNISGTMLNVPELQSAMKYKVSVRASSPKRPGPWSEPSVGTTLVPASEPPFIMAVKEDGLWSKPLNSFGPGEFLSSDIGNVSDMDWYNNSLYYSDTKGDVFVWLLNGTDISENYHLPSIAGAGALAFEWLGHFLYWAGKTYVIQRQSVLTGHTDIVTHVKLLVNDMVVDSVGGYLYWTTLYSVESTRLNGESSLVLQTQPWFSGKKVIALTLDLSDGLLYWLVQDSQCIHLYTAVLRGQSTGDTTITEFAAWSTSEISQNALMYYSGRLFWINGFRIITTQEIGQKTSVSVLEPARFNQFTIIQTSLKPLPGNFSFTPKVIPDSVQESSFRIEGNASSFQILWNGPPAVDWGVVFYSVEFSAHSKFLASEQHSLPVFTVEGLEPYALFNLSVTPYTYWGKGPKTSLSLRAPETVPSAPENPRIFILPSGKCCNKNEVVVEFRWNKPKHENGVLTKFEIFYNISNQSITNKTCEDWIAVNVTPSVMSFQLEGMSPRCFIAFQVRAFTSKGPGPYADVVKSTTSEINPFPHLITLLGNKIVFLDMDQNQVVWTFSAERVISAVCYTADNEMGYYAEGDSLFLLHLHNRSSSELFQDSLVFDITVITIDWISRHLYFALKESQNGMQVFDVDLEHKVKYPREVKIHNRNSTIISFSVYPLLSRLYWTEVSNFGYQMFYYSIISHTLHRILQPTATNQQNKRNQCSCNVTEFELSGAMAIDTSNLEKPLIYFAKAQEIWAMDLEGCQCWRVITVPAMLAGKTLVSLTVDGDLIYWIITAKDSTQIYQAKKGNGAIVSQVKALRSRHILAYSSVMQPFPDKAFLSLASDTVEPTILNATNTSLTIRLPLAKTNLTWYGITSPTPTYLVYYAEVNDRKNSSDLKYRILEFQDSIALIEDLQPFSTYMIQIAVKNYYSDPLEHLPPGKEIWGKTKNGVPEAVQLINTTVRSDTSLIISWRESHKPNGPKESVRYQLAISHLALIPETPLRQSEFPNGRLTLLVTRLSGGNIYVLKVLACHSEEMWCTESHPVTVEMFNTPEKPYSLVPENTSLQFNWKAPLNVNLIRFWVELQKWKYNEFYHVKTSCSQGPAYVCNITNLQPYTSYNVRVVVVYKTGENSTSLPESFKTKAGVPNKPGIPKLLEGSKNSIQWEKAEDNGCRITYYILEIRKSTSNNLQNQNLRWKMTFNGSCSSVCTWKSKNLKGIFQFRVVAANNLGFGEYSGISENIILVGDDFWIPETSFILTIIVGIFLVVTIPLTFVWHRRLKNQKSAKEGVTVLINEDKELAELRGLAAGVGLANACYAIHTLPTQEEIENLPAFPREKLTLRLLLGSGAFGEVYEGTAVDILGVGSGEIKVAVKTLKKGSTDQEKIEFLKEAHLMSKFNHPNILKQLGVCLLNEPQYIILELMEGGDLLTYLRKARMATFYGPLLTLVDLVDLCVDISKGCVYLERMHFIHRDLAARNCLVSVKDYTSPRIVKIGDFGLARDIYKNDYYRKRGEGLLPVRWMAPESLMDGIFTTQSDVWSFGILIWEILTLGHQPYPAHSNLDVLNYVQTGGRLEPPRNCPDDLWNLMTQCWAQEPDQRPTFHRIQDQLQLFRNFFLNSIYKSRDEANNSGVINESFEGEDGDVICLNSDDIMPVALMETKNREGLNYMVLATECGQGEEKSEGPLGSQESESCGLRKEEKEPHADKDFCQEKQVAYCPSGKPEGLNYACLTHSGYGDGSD
Experimental: as §1

ROCK-II(h) = target: T8, ROCK-II(h) (Homo sapiens, UniProt O75116); assay: as above; format: biochemical; conditions: read-out: percentage inhibition ROCK-II(h)
T8 construct: purchased Upstate
Experimental: as §1

Rsk1(h) = target: T9, Rsk1(h) (Homo sapiens, UniProt Q15418); assay: as above; format: biochemical; conditions: read-out: percentage inhibition Rsk1(h)
T9 construct: purchased Upstate
Experimental: as §1

Bmx(h) = target: T10, Bmx(h) (Homo sapiens, UniProt P51813); assay: as above; format: biochemical; conditions: read-out: percentage inhibition Bmx(h)
T10 construct: purchased Upstate
T10 sequence (P51813 whole entry): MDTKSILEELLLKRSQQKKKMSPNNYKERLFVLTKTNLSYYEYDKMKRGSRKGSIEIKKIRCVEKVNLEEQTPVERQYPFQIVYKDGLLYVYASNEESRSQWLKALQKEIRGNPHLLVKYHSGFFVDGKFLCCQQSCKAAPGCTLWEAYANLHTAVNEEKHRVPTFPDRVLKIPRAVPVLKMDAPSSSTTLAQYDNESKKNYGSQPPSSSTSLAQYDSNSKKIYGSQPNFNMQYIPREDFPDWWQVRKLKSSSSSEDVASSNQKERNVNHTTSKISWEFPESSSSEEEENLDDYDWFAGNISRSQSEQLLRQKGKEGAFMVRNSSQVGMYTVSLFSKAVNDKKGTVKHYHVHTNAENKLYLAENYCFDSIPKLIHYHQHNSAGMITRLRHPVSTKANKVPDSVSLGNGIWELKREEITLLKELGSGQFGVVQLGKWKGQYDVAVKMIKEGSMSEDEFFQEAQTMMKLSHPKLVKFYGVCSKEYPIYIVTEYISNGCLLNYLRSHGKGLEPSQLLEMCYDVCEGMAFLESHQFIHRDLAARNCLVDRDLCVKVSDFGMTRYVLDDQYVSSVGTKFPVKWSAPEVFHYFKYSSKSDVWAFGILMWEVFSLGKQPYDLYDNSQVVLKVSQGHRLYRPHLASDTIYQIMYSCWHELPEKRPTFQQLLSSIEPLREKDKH
Experimental: as §1

SGK(h) = target: T11, SGK(h) (Homo sapiens, UniProt O00141); assay: as above; format: biochemical; conditions: read-out: percentage inhibition SGK(h)
T11 construct: purchased Upstate
Experimental: as §1

BTK(h) = target: T12, BTK(h) (Homo sapiens, UniProt Q06187); assay: as above; format: biochemical; conditions: read-out: percentage inhibition BTK(h)
T12 construct: purchased Upstate
Experimental: as §1

Syk(h) = target: T13, Syk(h) (Homo sapiens, UniProt P43405); assay: as above; format: biochemical; conditions: read-out: percentage inhibition Syk(h)
T13 construct: purchased Upstate
Experimental: as §1

JNK2α2(h) = target: T14, JNK2α2(h) (Homo sapiens, UniProt P45984); assay: as above; format: biochemical; conditions: read-out: percentage inhibition JNK2α2(h)
T14 construct: purchased Upstate
T14 sequence (P45984 whole entry): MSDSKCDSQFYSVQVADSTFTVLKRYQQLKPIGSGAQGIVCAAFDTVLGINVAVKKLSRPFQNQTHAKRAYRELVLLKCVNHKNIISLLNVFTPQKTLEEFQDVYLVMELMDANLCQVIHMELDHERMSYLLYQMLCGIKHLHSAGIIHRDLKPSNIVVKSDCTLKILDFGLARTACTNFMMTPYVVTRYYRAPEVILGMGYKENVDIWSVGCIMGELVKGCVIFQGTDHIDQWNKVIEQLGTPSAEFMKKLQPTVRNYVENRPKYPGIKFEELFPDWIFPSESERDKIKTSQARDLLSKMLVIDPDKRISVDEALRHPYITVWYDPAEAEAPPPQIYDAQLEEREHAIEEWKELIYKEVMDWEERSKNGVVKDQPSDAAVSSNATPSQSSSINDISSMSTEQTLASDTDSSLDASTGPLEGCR
Experimental: as §1

Lck(h) = target: T15, Lck(h) (Homo sapiens, UniProt P06239); assay: as above; format: biochemical; conditions: read-out: percentage inhibition Lck(h)
T15 construct: purchased Upstate
Experimental: as §1

[1] = target: T16, wild type Bcr-abl (Ba/F3 cells) (Homo sapiens, UniProt P00519); assay: Proliferation of Ba/F3 cells expressing wild type Bcr-abl; format: cell-based
T16 construct: expressed in transfected cells; host or cells: Ba/F3 (murine pro-B cells); the other entry of the earlier key: BCR (P11274, Breakpoint cluster region protein)
Experimental: (§2) 32D-p210 cells are plated into 96 well TC plates at a density of 15,000 cells per well. 50 μL of two fold serial dilutions of the test compound (Cmax is 40 μM) are added to each well (STI571 is included as a positive control). After incubating the cells for 48 hours at 37° C., 5% CO2, 15 μL of MTT (Promega) is added to each well and the cells are incubated for an additional 5 hours. The optical density at 570 nm is quantified spectrophotometrically and IC50 values, the concentration of compound required for 50% inhibition, determined from a dose response curve.
(§3) Compounds of the invention are tested for their antiproliferative effect on Ba/F3 cells expressing either wild type or the mutant forms of BCR-Abl (G250E, E255V, T315I, F317L, M351T) that confers resistance or diminished sensitivity to STI571. The antiproliferative effect of these compounds on the mutant-BCR-Abl expressing cells and on the non transformed cells were tested at 10, 3.3, 1.1 and 0.37 μM as described above (in media lacking IL3). The IC50 values of the compounds lacking toxicity on the untransformed cells were determined from the dose response curves obtained as describe above.

[2] = target: T17, M351T Bcr-abl (Ba/F3 cells) (Homo sapiens, UniProt P00519, M351T); assay: Proliferation of Ba/F3 cells expressing M351T Bcr-abl; format: cell-based
T17 construct: expressed in transfected cells; host or cells: Ba/F3 (murine pro-B cells); the other entry of the earlier key: BCR (P11274, Breakpoint cluster region protein)
Experimental: as §2, §3

[3] = target: T18, E255V Bcr-abl (Ba/F3 cells) (Homo sapiens, UniProt P00519, E255V); assay: Proliferation of Ba/F3 cells expressing E255V Bcr-abl; format: cell-based
T18 construct: expressed in transfected cells; host or cells: Ba/F3 (murine pro-B cells); the other entry of the earlier key: BCR (P11274, Breakpoint cluster region protein)
Experimental: as §2, §3

T1 sequence (P09619 600-962 limits assumed, change not shown): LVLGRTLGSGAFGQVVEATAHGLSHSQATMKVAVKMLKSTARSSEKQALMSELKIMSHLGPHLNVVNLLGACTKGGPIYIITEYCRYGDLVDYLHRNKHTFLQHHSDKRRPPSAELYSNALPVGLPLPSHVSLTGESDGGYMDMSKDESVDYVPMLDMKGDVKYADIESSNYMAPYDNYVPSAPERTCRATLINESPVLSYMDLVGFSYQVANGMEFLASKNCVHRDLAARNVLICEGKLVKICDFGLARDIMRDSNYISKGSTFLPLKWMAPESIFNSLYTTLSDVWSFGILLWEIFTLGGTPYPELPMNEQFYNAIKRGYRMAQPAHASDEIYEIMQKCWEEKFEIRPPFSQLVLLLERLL

- GI50 (PDGFR-β): 3.8 nM
- inhibition at 10 µM (SAPK4(h)): 82%
- inhibition at 10 µM (cSRC(h)): 99%
- inhibition at 10 µM (FGFR3(h)): 98%
- inhibition at 10 µM (Flt3(h)): 96%
- inhibition at 10 µM (IKKβ(h)): 96%
- inhibition at 10 µM (Ros(h)): 62%
- inhibition at 10 µM (ROCK-II(h)): 78%
- inhibition at 10 µM (Rsk1(h)): 95%
- inhibition at 10 µM (Bmx(h)): 100%
- inhibition at 10 µM (SGK(h)): 81%
- inhibition at 10 µM (BTK(h)): 99%
- inhibition at 10 µM (Syk(h)): 63%
- inhibition at 10 µM (JNK2α2(h)): 99%
- inhibition at 10 µM (Lck(h)): 100%
- pIC50 [1]: > 8.30
- pIC50 [2]: > 8.30
- pIC50 [3]: > 8.30
Compound: CCN1CCN(Cc2ccc(NC(=O)c3ccc(C)c(NC(=O)N(C)c4ncnc5[nH]ccc45)c3)cc2C(F)(F)F)CC1 [Example 4, N-[4-(4-Ethyl-piperazin-1-ylmethyl)-3-trifluoromethyl-phenyl]-4-methyl-3-[3-methyl-3-(7H-pyrrolo[2,3-d]pyrimidin-4-yl)-ureido]-benzamide]
